{"source": "patent US20170138931A9", "about": "“METHOD FOR DIAGNOSIS OF INFLAMMATORY DISEASES USING CALGRANULIN C” (WESTFAELISCHE WILHELMS-UNIVERSITAET MUENSTER, priority 2002, published 2017)", "molecules": {"B1": {"name": "sRAGE: soluble RAGE, receptor for advanced glycation end products, used as blocking agent in mouse models (protein, UniProt Q62151 23-340, looked up)", "extracellular domain": "GQNITARIGEPLVLSCKGAPKKPPQQLEWKLNTGRTEAWKVLSPQGGPWDSVARILPNGSLLLPATGIVDEGTFRCRATNRRGKEVKSNYRVRVYQIPGKPEIVDPASELTASVPNKVGTCVSEGSYPAGTLSWHLDGKLLIPDGKETLVKEETRRHPETGLFTLRSELTVIPTQGGTHPTFSCSFSLGLPRRRPLNTAPIQLRVREPGPPEGIQLLVEPEGGIVAPGGTVTLTCAISAQPPPQVHWIKDGAPLPLAPSPVLLLPEVGHEDEGTYSCVATHPSHGPQESPPVSIRVTETGDEGPAEGSVGESGLGTLA", "modifications": "extracellular domain"}, "B2": {"name": "CALGRANULIN C: small protein of 92 amino acids which belongs to the family of calcium-binding S100 proteins; SEQ ID NO:2 (protein)", "chain": "MTKLEEHLEGIVNIFHQYSVRKGHFDTLSKGELKQLLTKELANTIKNIKDKAVIDEIFQGLDANQDEQVDFQEFISLVAIALKAAHYHTHKE", "modifications": "homo sapiens"}}, "key": {"[1]": {"tested_on": "CALGRANULIN C expressed in synovial tissue", "assay": "Immunohistochemical analysis of CALGRANULIN C in synovial tissue of psoriatic arthritis patients before and after MTX treatment", "assay_type": "in vivo, human", "conditions": "for number of CALGRANULIN C-positive cells per field in synovial membrane, mean score of 10 fields: after MTX treatment, 400-fold magnification", "protocol": "To confirm local expression of CALGRANULIN C at sites of inflammation we performed immunohistochemical studies. Synovial biopsies were performed in 4 patients with psoriatic arthritis before and after MTX-therapy. In addition, biopsies were obtained from 5 patients with psoriatic arthritis not receiving MTX, 2 patients with rheumatoid arthritis, and 2 patients with seronegative arthritis. Two biopsies of patients without synovial inflammation served as negative controls. Cryo-fixed and paraffin-embedded sections were prepared as commonly known in the art. Rabbit anti-human CALGRANULIN C antibody was used to detect CALGRANULIN C expression. Mouse-anti-human CD15, a granulocyte-associated antigen, was used to detect granulocytes in infiltrates. Mouse-anti human CD163 antibody (clone RM3/1, detecting a macrophage-specific scavenger receptor) was employed to characterize macrophages in infiltrates. Species matching control antibodies of irrelevant specificity were used as negative controls. Finally the sections were counterstained with Mayer's haematoxylin. Secondary antibodies and substrates for colour reactions were used as described before. For double-labelling experiments, anti-CALGRANULIN C antibody was followed by anti-CD15 antibody. We used affinity-purified goat-anti-mouse or goat-anti-rabbit secondary antibodies conjugated with either Texas Red or FITC (Dianova, Hamburg, Germany). Fluorescence was analysed using a Zeiss Axioskop connected to an Axiocam camera supply with Axiovision 3.0 for windows (Zeiss, Göttingen, Germany). No cross-reactivity or spillover was detected in control experiments after omitting specific antibodies or replacing them by isotype-matched control antibodies of irrelevant specificity.\nWe analysed the effects of MTX treatment on CALGRANULIN C expression in serum of 14 patients with psoriatic arthritis and in synovial membranes of 4 patients. Before treatment, extensive expression of CALGRANULIN C was found in synovial tissue of psoriatic arthritis patients before MTX treatment (cf. FIG. 7G), as described above predominantly in the sub-lining layer and perivascular."}, "[2]": {"tested_on": "patients with psoriatic arthritis", "assay": "Disease activity in patients with psoriatic arthritis after initiation of MTX treatment", "assay_type": "in vivo, human", "protocol": "We investigated 42 patients with chronic inflammatory arthritis. CALGRANULIN C concentrations were analysed in serum and synovial fluid using a sandwich-ELISA as described above. Serum levels were determined from 14 patients (9 male, 5 female; mean age 40 years; range 21-64) suffering from psoriasis arthritis (mean disease duration 14.6±8.6 months), who where treated with the anti-inflammatory drug MTX (mean dose 12.9±4.8 mg). No other medication apart from non-steroidal anti-inflammatory drugs (NSAIDs) were taken. Serum was obtained before and after treatment (mean follow up interval 6.4±1.3 months). In addition, paired serum and synovial fluid samples were available from 28 patients who underwent arthroscopy (8 patients with psoriatic arthritis, 9 patients with rheumatoid arthritis, 11 patients with seronegative arthritis). All patients were examined by the same physician. Clinical status of patients was documented by recording early morning stiffness, pain score, Ritchie articular index (RI) (Ritchie et al., 1968, QJ Med 37: 393-406) and number of swollen joint count (SJC). […] Patients with seronegative arthritis were in between these groups. In addition to the clinical status, CRP, ESR, anti nuclear antibodies (ANA), and rheumatoid factor (RF) were documented.\nResponse to therapy was paralleled by a marked decrease of CALGRANULIN C serum levels after MTX treatment (mean 240 ng/ml prior versus 100 ng/ml after MTX; cf. FIG. 8). CALGRANULIN C levels correlated well with improving EMS, pain score, RI and SJC."}, "[3]": {"tested_on": "CALGRANULIN C serum levels", "assay": "Serum CALGRANULIN C by sandwich ELISA in psoriatic arthritis patients treated with MTX", "assay_type": "in vivo, human", "conditions": "14 psoriatic arthritis patients, after MTX; 240 ng/ml prior", "protocol": "(§1) Concentrations of CALGRANULIN C in the serum of patients were determined by a double sandwich enzyme linked immunosorbent assay (ELISA) system. Flat-bottom 96-well microtiter plates (Maxisorp; Nunc, Roskilde, Denmark) were coated at 50 μl/well with 10 ng/well of anti-CALGRANULIN C in 0.1 M sodium carbonate buffer, pH 9.6; incubated for 16 h at 4° C.; washed three times with phosphate buffer saline and 0.1% Tween 20, pH 7.4 (wash buffer); and blocked with wash buffer containing 0.25% bovine serum albumin (block buffer) for 1 h at 37° C. Plates were washed once with wash buffer and 50 μl of samples with varying dilutions in block buffer were added for 1 h at room temperature. […] Absorbency at 405 nm was measured with ELISA-reader (MRX microplate reader, Dynatech Laboratories, St Peter Port, Guernsey, UK).\nWe investigated 42 patients with chronic inflammatory arthritis. CALGRANULIN C concentrations were analysed in serum and synovial fluid using a sandwich-ELISA as described above. Serum levels were determined from 14 patients (9 male, 5 female; mean age 40 years; range 21-64) suffering from psoriasis arthritis (mean disease duration 14.6±8.6 months), who where treated with the anti-inflammatory drug MTX (mean dose 12.9±4.8 mg). […]\nWe analysed the effects of MTX treatment on CALGRANULIN C expression in serum of 14 patients with psoriatic arthritis and in synovial membranes of 4 patients. […]"}, "[4]": {"tested_on": "JRA patients", "conditions": "Ravelli et al., 1995; cited from earlier work"}, "[5]": {"tested_on": "Human mixed donor neutrophils", "assay": "CALGRANULIN C secretion by neutrophils stimulated with TNF alpha in vitro", "assay_type": "cell-based", "protocol": "Human mixed donor neutrophils were isolated from buffy coats (German red cross, Munster, Germany) as described before (Vogl et al., 1999, J Biol Chem 274: 25291-25296). Briefly, centrifugation through Ficoll-Hypague (Biocoll, Biochrom, Berlin, Germany) was performed to separate neutrophils from mononuclear cells and platelets. Erythrocytes were separated by dextran sedimentation. The remaining cells were washed twice in PBS. Purity of cells was above 95%, as determined by morphological analysis of Trypan-blue stained cells. Neutrophils were resuspended at a final concentration of 1×10^7 cells/ml in serum free RPMI medium (Biochrom, Berlin, Germany) supplemented with 1% glutamine, 1% non-essential amino acids, and 1% penicillin/streptomycin. […] Stimulated and non-stimulated cells were incubated for 15 or 30 minutes at 37° C., respectively. Finally, neutrophils were pelleted at 500×g for 5 minutes at 4° C. and the supernatant was saved for analyses of CALGRANULIN C with sandwich-ELISA. Cell lysis was assessed by analysing activity of lactate dehydrogenase (LDH) using its capacity to convert NADH to NAD^+ and measuring the decrease of absorbency of NADH at 340 nm. Protease inhibitors were added to prevent proteolytic degradation."}, "[6]": {"tested_on": "CALGRANULIN C serum levels", "assay": "CALGRANULIN C serum levels in Crohn's disease patients treated with infliximab", "assay_type": "in vivo, human", "conditions": "3 Crohn's disease patients; before, 2 weeks and 4 weeks after infliximab", "protocol": "FIG. 11: CALGRANULIN C serum levels in patients with Crohn's disease due to infliximab treatment. Individual courses of CALGRANULIN C and CDAI in 3 patients before, 2 weeks, and 4 weeks after treatment with infliximab (a-c).\nas §1, with “temperature. The ELISA was calibrated with purified CALGRANULIN C in concentrations ranging from 0.016 to 125 ng/ml.” for “temperature.”\nCrohn's disease patients (n=40), ulcerative colitis patients (n=34) and healthy controls (n=30) were investigated: CALGRANULIN C protein serum levels were measured as described above using ELISA. In parallel, CRP and ESR were determined. […]"}, "[7]": {"tested_on": "interaction of CALGRANULIN C with RAGE", "conditions": "blocking the CALGRANULIN C-RAGE interaction; Hofmann et al. 1999, Schmidt et al. 2001; cited from earlier work"}, "[8]": {"assay": "Stability of CALGRANULIN C protein", "assay_type": "physicochemical", "conditions": "at room temperature or after multiple thawing and freezing cycles"}}, "note": "Marks after values point to notes of the source that are not given here.", "data": [{"molecule": "CN(Cc1cnc2nc(N)nc(N)c2n1)c1ccc(C(=O)N[C@@H](CCC(=O)O)C(=O)O)cc1", "note": "[MTX, methotrexat]", "values": [{"measurement": "number of CALGRANULIN C-positive cells per field in synovial membrane, mean score of 10 fields", "setting": "[1]; Patient 1, psoriatic arthritis, before MTX 23", "value": 3}, {"measurement": "number of CALGRANULIN C-positive cells per field in synovial membrane, mean score of 10 fields", "setting": "[1]; Patient 2, psoriatic arthritis, before MTX 12", "value": "<1"}, {"measurement": "number of CALGRANULIN C-positive cells per field in synovial membrane, mean score of 10 fields", "setting": "[1]; Patient 3, psoriatic arthritis, before MTX 17", "value": "<1"}, {"measurement": "number of CALGRANULIN C-positive cells per field in synovial membrane, mean score of 10 fields", "setting": "[1]; Patient 4, psoriatic arthritis, before MTX 21", "value": "<1"}, {"measurement": "CALGRANULIN C expression in synovial biopsies", "setting": "[1]; psoriatic arthritis patients after effective MTX treatment, extensive expression before", "value": "almost undetectable"}, {"measurement": "CRP", "setting": "[2]; before MTX 4.2, p < 0.05", "value": "2.5* mg/dl"}, {"measurement": "Pain", "setting": "[2]; before MTX 5.3, p < 0.05", "value": "3.2* points"}, {"measurement": "RI (Ritchie articular index)", "setting": "[2]; before MTX 6.3, p < 0.01", "value": "1.9** points"}, {"measurement": "SJC (swollen joint count)", "setting": "[2]; before MTX 9.6, p < 0.01", "value": "3.3** No."}, {"measurement": "ESR", "setting": "[2]; before MTX 28, p < 0.05", "value": "12* mm/h"}, {"measurement": "EMS (early morning stiffness)", "setting": "[2]; before MTX 76, p < 0.01", "value": "25** min"}, {"measurement": "mean CALGRANULIN C serum level", "setting": "[3]", "value": 100, "unit": "ng/mL"}, {"measurement": "JRA patients who relapse after withdrawal of treatment", "setting": "[4]", "value": "about 50%"}]}, {"molecule": "TNF alpha", "values": [{"measurement": "CALGRANULIN C secretion into supernatant", "setting": "[5]; TNF alpha 2 or 5 ng/ml, 15 or 30 minutes at 37° C., unstimulated cells between 5 and 10 ng/ml", "value": "time- and dose-dependent increase"}, {"measurement": "viability and cell lysis tested by LDH activity", "setting": "[5]; stimulated vs non-stimulated neutrophils", "value": "no differences"}]}, {"molecule": "infliximab: TNF blocking agents such as anti-TNF antibodies, e.g. infliximab", "values": [{"measurement": "CALGRANULIN C serum levels after treatment", "setting": "[6]", "value": "decreased rapidly"}]}, {"molecule": "B1", "values": [{"measurement": "effect in mouse models of inflammation including arthritis", "setting": "[7]", "value": "clear anti-inflammatory effects"}]}, {"molecule": "B2", "values": [{"measurement": "stability of the protein", "setting": "[8]", "value": "extremely stable"}]}]}
